Measurements published in the NIST ThermoML archive (doi:10.1016/j.fluid.2016.10.026).
Numbers after ± are expanded uncertainties.

Conditions: for surface tension liquid-gas: Drop volume; for kinematic viscosity / speed of sound / mass density: Liquid; for kinematic viscosity: Capillary tube (Ostwald / Ubbelohde) method; for speed of sound: Frequency=3 MHz, Sing-around technique in a fixed-path interferometer; for mass density: Vibrating tube method

## CC(=O)c1cccs1 [2-acetylthiophene]
278.15 K
  surface tension liquid-gas: 45.41 ± 0.5 mN/m
278.15 K, 101 kPa
  kinematic viscosity: 3.7e-06 ± 4.2e-08 m2/s
  speed of sound: 1538.3 ± 0.94 m/s
  mass density: 1185.43 ± 0.17 kg/m3
280.65 K
  surface tension liquid-gas: 45.14 ± 0.5 mN/m
280.65 K, 101 kPa
  kinematic viscosity: 3.44e-06 ± 3.9e-08 m2/s
  speed of sound: 1529.7 ± 0.94 m/s
  mass density: 1183.04 ± 0.17 kg/m3
283.15 K
  surface tension liquid-gas: 44.83 ± 0.49 mN/m
283.15 K, 100 kPa
  mass density: 1180.61 ± 0.24 kg/m3
283.15 K, 101 kPa
  kinematic viscosity: 3.21e-06 ± 3.7e-08 m2/s
  speed of sound: 1521.2 ± 0.93 m/s
  mass density: 1180.64 ± 0.17 kg/m3
283.15 K, 2000 kPa
  mass density: 1181.78 ± 0.25 kg/m3
283.15 K, 5000 kPa
  mass density: 1183.44 ± 0.26 kg/m3
283.15 K, 7000 kPa
  mass density: 1184.54 ± 0.27 kg/m3
283.15 K, 10000 kPa
  mass density: 1186.17 ± 0.28 kg/m3
283.15 K, 15000 kPa
  mass density: 1188.81 ± 0.31 kg/m3
283.15 K, 20000 kPa
  mass density: 1191.4 ± 0.34 kg/m3
283.15 K, 25000 kPa
  mass density: 1193.92 ± 0.37 kg/m3
283.15 K, 30000 kPa
  mass density: 1196.37 ± 0.4 kg/m3
283.15 K, 35000 kPa
  mass density: 1198.77 ± 0.43 kg/m3
283.15 K, 40000 kPa
  mass density: 1201.11 ± 0.47 kg/m3
283.15 K, 45000 kPa
  mass density: 1203.39 ± 0.51 kg/m3
285.65 K
  surface tension liquid-gas: 44.58 ± 0.49 mN/m
285.65 K, 101 kPa
  kinematic viscosity: 3e-06 ± 3.4e-08 m2/s
  speed of sound: 1512.7 ± 0.93 m/s
  mass density: 1178.25 ± 0.17 kg/m3
288.15 K
  surface tension liquid-gas: 44.31 ± 0.49 mN/m
288.15 K, 100 kPa
  mass density: 1175.97 ± 0.24 kg/m3
288.15 K, 101 kPa
  kinematic viscosity: 2.81e-06 ± 3.2e-08 m2/s
  speed of sound: 1503.9 ± 0.93 m/s
  mass density: 1175.86 ± 0.16 kg/m3
288.15 K, 2000 kPa
  mass density: 1177.04 ± 0.25 kg/m3
288.15 K, 5000 kPa
  mass density: 1178.73 ± 0.26 kg/m3
288.15 K, 7000 kPa
  mass density: 1179.85 ± 0.27 kg/m3
288.15 K, 10000 kPa
  mass density: 1181.52 ± 0.28 kg/m3
288.15 K, 15000 kPa
  mass density: 1184.21 ± 0.31 kg/m3
288.15 K, 20000 kPa
  mass density: 1186.85 ± 0.33 kg/m3
288.15 K, 25000 kPa
  mass density: 1189.43 ± 0.36 kg/m3
288.15 K, 30000 kPa
  mass density: 1191.93 ± 0.4 kg/m3
288.15 K, 35000 kPa
  mass density: 1194.37 ± 0.43 kg/m3
288.15 K, 40000 kPa
  mass density: 1196.76 ± 0.46 kg/m3
288.15 K, 45000 kPa
  mass density: 1199.09 ± 0.5 kg/m3
290.65 K
  surface tension liquid-gas: 44.01 ± 0.48 mN/m
290.65 K, 101 kPa
  kinematic viscosity: 2.64e-06 ± 3e-08 m2/s
  speed of sound: 1495 ± 0.93 m/s
  mass density: 1173.47 ± 0.16 kg/m3
293.15 K
  surface tension liquid-gas: 43.73 ± 0.48 mN/m
293.15 K, 100 kPa
  mass density: 1171 ± 0.24 kg/m3
293.15 K, 101 kPa
  kinematic viscosity: 2.51e-06 ± 2.9e-08 m2/s
  speed of sound: 1486.3 ± 0.93 m/s
  mass density: 1171.07 ± 0.16 kg/m3
293.15 K, 2000 kPa
  mass density: 1172.28 ± 0.25 kg/m3
293.15 K, 5000 kPa
  mass density: 1174.02 ± 0.26 kg/m3
293.15 K, 7000 kPa
  mass density: 1175.16 ± 0.27 kg/m3
293.15 K, 10000 kPa
  mass density: 1176.85 ± 0.28 kg/m3
293.15 K, 15000 kPa
  mass density: 1179.61 ± 0.3 kg/m3
293.15 K, 20000 kPa
  mass density: 1182.3 ± 0.33 kg/m3
293.15 K, 25000 kPa
  mass density: 1184.93 ± 0.36 kg/m3
293.15 K, 30000 kPa
  mass density: 1187.48 ± 0.39 kg/m3
293.15 K, 35000 kPa
  mass density: 1189.98 ± 0.42 kg/m3
293.15 K, 40000 kPa
  mass density: 1192.41 ± 0.46 kg/m3
293.15 K, 45000 kPa
  mass density: 1194.78 ± 0.49 kg/m3
293.15 K, 50000 kPa
  mass density: 1197.1 ± 0.53 kg/m3
293.15 K, 55000 kPa
  mass density: 1199.35 ± 0.58 kg/m3
293.15 K, 60000 kPa
  mass density: 1201.56 ± 0.62 kg/m3
293.15 K, 65000 kPa
  mass density: 1203.71 ± 0.67 kg/m3
295.65 K
  surface tension liquid-gas: 43.46 ± 0.48 mN/m
295.65 K, 101 kPa
  kinematic viscosity: 2.35e-06 ± 2.7e-08 m2/s
  speed of sound: 1477.8 ± 0.92 m/s
  mass density: 1168.68 ± 0.16 kg/m3
298.15 K
  surface tension liquid-gas: 43.16 ± 0.47 mN/m
298.15 K, 100 kPa
  mass density: 1166.24 ± 0.24 kg/m3
298.15 K, 101 kPa
  kinematic viscosity: 2.22e-06 ± 2.5e-08 m2/s
  speed of sound: 1469 ± 0.92 m/s
  mass density: 1166.29 ± 0.16 kg/m3
298.15 K, 2000 kPa
  mass density: 1167.52 ± 0.24 kg/m3
298.15 K, 5000 kPa
  mass density: 1169.28 ± 0.26 kg/m3
298.15 K, 7000 kPa
  mass density: 1170.46 ± 0.26 kg/m3
298.15 K, 10000 kPa
  mass density: 1172.2 ± 0.28 kg/m3
298.15 K, 15000 kPa
  mass density: 1175.02 ± 0.3 kg/m3
298.15 K, 20000 kPa
  mass density: 1177.77 ± 0.33 kg/m3
298.15 K, 25000 kPa
  mass density: 1180.44 ± 0.35 kg/m3
298.15 K, 30000 kPa
  mass density: 1183.06 ± 0.38 kg/m3
298.15 K, 35000 kPa
  mass density: 1185.59 ± 0.42 kg/m3
298.15 K, 40000 kPa
  mass density: 1188.08 ± 0.45 kg/m3
298.15 K, 45000 kPa
  mass density: 1190.5 ± 0.48 kg/m3
298.15 K, 50000 kPa
  mass density: 1192.87 ± 0.52 kg/m3
298.15 K, 55000 kPa
  mass density: 1195.17 ± 0.57 kg/m3
298.15 K, 60000 kPa
  mass density: 1197.42 ± 0.61 kg/m3
298.15 K, 65000 kPa
  mass density: 1199.61 ± 0.66 kg/m3
300.65 K
  surface tension liquid-gas: 42.86 ± 0.47 mN/m
300.65 K, 101 kPa
  kinematic viscosity: 2.1e-06 ± 2.4e-08 m2/s
  speed of sound: 1460.5 ± 0.92 m/s
  mass density: 1163.91 ± 0.16 kg/m3
303.15 K
  surface tension liquid-gas: 42.59 ± 0.47 mN/m
303.15 K, 100 kPa
  mass density: 1161.59 ± 0.24 kg/m3
303.15 K, 101 kPa
  kinematic viscosity: 1.99e-06 ± 2.3e-08 m2/s
  speed of sound: 1451.8 ± 0.92 m/s
  mass density: 1161.52 ± 0.16 kg/m3
303.15 K, 2000 kPa
  mass density: 1162.77 ± 0.24 kg/m3
303.15 K, 5000 kPa
  mass density: 1164.6 ± 0.25 kg/m3
303.15 K, 7000 kPa
  mass density: 1165.79 ± 0.26 kg/m3
303.15 K, 10000 kPa
  mass density: 1167.56 ± 0.27 kg/m3
303.15 K, 15000 kPa
  mass density: 1170.45 ± 0.3 kg/m3
303.15 K, 20000 kPa
  mass density: 1173.26 ± 0.32 kg/m3
303.15 K, 25000 kPa
  mass density: 1175.98 ± 0.35 kg/m3
303.15 K, 30000 kPa
  mass density: 1178.65 ± 0.38 kg/m3
303.15 K, 35000 kPa
  mass density: 1181.25 ± 0.41 kg/m3
303.15 K, 40000 kPa
  mass density: 1183.77 ± 0.44 kg/m3
303.15 K, 45000 kPa
  mass density: 1186.24 ± 0.48 kg/m3
303.15 K, 50000 kPa
  mass density: 1188.64 ± 0.51 kg/m3
303.15 K, 55000 kPa
  mass density: 1190.99 ± 0.56 kg/m3
303.15 K, 60000 kPa
  mass density: 1193.27 ± 0.6 kg/m3
303.15 K, 65000 kPa
  mass density: 1195.5 ± 0.64 kg/m3
305.65 K
  surface tension liquid-gas: 42.31 ± 0.47 mN/m
305.65 K, 101 kPa
  kinematic viscosity: 1.9e-06 ± 2.2e-08 m2/s
  speed of sound: 1443.2 ± 0.91 m/s
  mass density: 1159.13 ± 0.16 kg/m3
308.15 K
  surface tension liquid-gas: 42.03 ± 0.46 mN/m
308.15 K, 100 kPa
  mass density: 1156.84 ± 0.24 kg/m3
308.15 K, 101 kPa
  kinematic viscosity: 1.81e-06 ± 2.1e-08 m2/s
  speed of sound: 1434.8 ± 0.91 m/s
  mass density: 1156.74 ± 0.16 kg/m3
308.15 K, 2000 kPa
  mass density: 1158.03 ± 0.24 kg/m3
308.15 K, 5000 kPa
  mass density: 1159.89 ± 0.25 kg/m3
308.15 K, 7000 kPa
  mass density: 1161.11 ± 0.26 kg/m3
308.15 K, 10000 kPa
  mass density: 1162.92 ± 0.27 kg/m3
308.15 K, 15000 kPa
  mass density: 1165.87 ± 0.29 kg/m3
308.15 K, 20000 kPa
  mass density: 1168.75 ± 0.32 kg/m3
308.15 K, 25000 kPa
  mass density: 1171.53 ± 0.34 kg/m3
308.15 K, 30000 kPa
  mass density: 1174.24 ± 0.37 kg/m3
308.15 K, 35000 kPa
  mass density: 1176.89 ± 0.4 kg/m3
308.15 K, 40000 kPa
  mass density: 1179.46 ± 0.43 kg/m3
308.15 K, 45000 kPa
  mass density: 1181.98 ± 0.47 kg/m3
308.15 K, 50000 kPa
  mass density: 1184.43 ± 0.5 kg/m3
308.15 K, 55000 kPa
  mass density: 1186.82 ± 0.55 kg/m3
308.15 K, 60000 kPa
  mass density: 1189.15 ± 0.59 kg/m3
308.15 K, 65000 kPa
  mass density: 1191.41 ± 0.63 kg/m3
310.65 K
  surface tension liquid-gas: 41.72 ± 0.46 mN/m
310.65 K, 101 kPa
  kinematic viscosity: 1.72e-06 ± 2e-08 m2/s
  speed of sound: 1426.1 ± 0.91 m/s
  mass density: 1154.35 ± 0.16 kg/m3
313.15 K
  surface tension liquid-gas: 41.43 ± 0.46 mN/m
313.15 K, 100 kPa
  mass density: 1152.05 ± 0.23 kg/m3
313.15 K, 101 kPa
  kinematic viscosity: 1.65e-06 ± 1.9e-08 m2/s
  speed of sound: 1417.5 ± 0.91 m/s
  mass density: 1151.96 ± 0.16 kg/m3
313.15 K, 2000 kPa
  mass density: 1153.3 ± 0.24 kg/m3
313.15 K, 5000 kPa
  mass density: 1155.19 ± 0.25 kg/m3
313.15 K, 7000 kPa
  mass density: 1156.45 ± 0.26 kg/m3
313.15 K, 10000 kPa
  mass density: 1158.29 ± 0.27 kg/m3
313.15 K, 15000 kPa
  mass density: 1161.33 ± 0.29 kg/m3
313.15 K, 20000 kPa
  mass density: 1164.23 ± 0.31 kg/m3
